Read-outs that look alike come from different tables or passages of the source. *1 amine or outer side, *2 acyl side, *3 side chain or, on linkers, in order; H or OH if unused. Where a SMILES comes first, the peptide text is derived from it. Bridges are numbered along the chain shown (N, C = ends). Roman numbers before positions name the chains, in order. [ ]: non-standard residue; d: D form. Actinocin(9to1) = Cc1c2oc3c(C)ccc(C(=O)[*:1])c3nc-2c(C(=O)[*:2])c(N)c1=O; NMeV = CN[C@H](C(=O)O)C(C)C; Sar = CNCC(=O)O
Assays:
[1] = test system: multidrug resistant cells DC-3F/ADX; assay: Reversal of actinomycin D resistance in DC-3F/ADX cells, MTT test; format: cell-based, Chinese hamster; conditions: for RF (IC50 for toxic drug alone/IC50 for toxic drug in the presence of compound): ActD; for RF (IC50 for toxic drug alone/IC50 for toxic drug in the presence of compound) / toxicity of actinomycin D when combined with the compound: compound at 5 μM
Description: (§1) Multidrug resistant tumor cells used in the present invention were Human lymphoma parental CEM and vinblastine-resistant CEM/VLB (Zordan-Nudpo et al., 1993) and parental […] and multidrug resistant cells DC-3F/ADX selected from spontaneously transformed DC-3F Chinese hamster lung fibroblasts on the basis of their resistance to actinomycin D (Biedler and Riehm, 1970). Both types of resistant cells overexpressed Pgp.
(§2) CEM/VLB cells and DC-3F/ADX cells described in aforementioned part 1.3 were plated into 96 well plates and allowed to grow for 24 h. They were then incubated 4 days with vinblastine (concentration range 0-1 μM) with or without IVM at 2.5 μM or ivermectin aglycone (IVM-Agly) at 2.5 and at 5 μM (FIG. 7); or 2 days with actinomycin D with actinomycin (concentration range 0.01-10 μM) with or without ivermectin (IVM) or ivermectin aglycone (IVM-Agly) at 5 μM (FIG. 8). Cytotoxicity was determined using the MTT test. IC50 values were graphically determined and they represent the concentration needed for half cell survival. Fold reversal of multidrug resistance called reversion factors were the ratio of IC50 for toxic drug alone/IC50 for toxic drug in the presence of IVM-Agly.

[2] = molecular target: T1, rat GABA(A) receptor (α1, β2 and γ2 subunits) (Rattus norvegicus, UniProt P18508+P62813+P63138); assay: GABA receptor affinity test, two-electrode voltage clamp in Xenopus oocytes; format: cell-based; conditions: for EC50: co-application with 2 μM GABA (EC10), Xenopus oocytes, read-out: EC50: concentration needed to induce half of the maximal potentiation of GABA effect; for agonist strength at GABA receptors, in words: compared to ivermectin
T1 construct: expressed in transfected cells; host or cells: Xenopus laevis oocytes injected with RNA
T1 sequence (P62813 28-455): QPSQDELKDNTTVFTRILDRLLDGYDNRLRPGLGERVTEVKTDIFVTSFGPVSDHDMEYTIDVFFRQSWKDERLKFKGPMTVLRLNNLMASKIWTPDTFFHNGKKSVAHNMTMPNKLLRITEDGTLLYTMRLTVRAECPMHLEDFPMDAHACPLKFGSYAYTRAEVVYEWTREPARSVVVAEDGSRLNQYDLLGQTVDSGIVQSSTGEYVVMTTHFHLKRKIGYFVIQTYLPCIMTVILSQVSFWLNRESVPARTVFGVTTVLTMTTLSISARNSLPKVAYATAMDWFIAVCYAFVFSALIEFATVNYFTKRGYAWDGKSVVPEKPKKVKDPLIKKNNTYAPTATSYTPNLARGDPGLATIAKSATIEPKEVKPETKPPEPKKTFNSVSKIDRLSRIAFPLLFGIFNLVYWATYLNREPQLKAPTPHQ
T1 sequence (P63138 25-474 limits assumed): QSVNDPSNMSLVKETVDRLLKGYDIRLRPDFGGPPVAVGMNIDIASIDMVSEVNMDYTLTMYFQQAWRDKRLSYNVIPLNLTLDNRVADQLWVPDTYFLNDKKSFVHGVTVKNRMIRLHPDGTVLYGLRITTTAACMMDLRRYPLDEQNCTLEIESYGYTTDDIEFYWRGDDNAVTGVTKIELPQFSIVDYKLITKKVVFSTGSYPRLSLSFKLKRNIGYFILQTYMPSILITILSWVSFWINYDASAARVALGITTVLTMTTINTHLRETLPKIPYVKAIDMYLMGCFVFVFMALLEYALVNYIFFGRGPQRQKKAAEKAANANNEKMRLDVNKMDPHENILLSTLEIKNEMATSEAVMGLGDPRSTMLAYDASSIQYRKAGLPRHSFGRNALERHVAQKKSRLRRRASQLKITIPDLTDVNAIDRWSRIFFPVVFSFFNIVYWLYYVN
T1 sequence (P18508 39-466): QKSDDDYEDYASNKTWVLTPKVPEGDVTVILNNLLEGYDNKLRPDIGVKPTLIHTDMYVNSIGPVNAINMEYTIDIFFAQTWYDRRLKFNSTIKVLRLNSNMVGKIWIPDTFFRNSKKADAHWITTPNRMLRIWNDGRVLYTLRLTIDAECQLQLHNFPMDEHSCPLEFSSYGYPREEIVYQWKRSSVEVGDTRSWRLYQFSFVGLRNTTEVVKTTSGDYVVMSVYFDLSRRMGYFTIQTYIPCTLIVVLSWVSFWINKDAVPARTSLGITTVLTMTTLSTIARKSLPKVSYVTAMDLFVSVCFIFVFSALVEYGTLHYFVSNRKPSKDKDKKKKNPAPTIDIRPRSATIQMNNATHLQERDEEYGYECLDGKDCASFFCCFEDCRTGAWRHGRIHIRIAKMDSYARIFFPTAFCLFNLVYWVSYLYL
Procedure: The ability of ivermectin or moxidectin or ivermectin aglycone or ivermectin monosaccharide to interact with GABA receptors is assayed by electrophysiology measurements. Xenopus laevis oocytes are injected with 46 nl of RNA solution, with RNA coding for α1, β2 and γ2 subunits of the GABA channel at a ratio of 10:10:50 nM. The injected oocytes are incubated in modified Barth's solution [90 mM NaCl, 3 mM KCl, 0.82 mM MgSO4, 0.41 mM CaCl2, 0.34 mM Ca(NO3)2, 100 U/ml penicillin, 100 μg/ml streptomycin and 100 μg/ml kanamycin, 5 mM HEPES pH 7.6] at 18° C. for approximately 36 h before the measurements to ensure the expression of a functional receptor.
Electrophysiological experiments are performed by the two-electrode voltage-clamp method. Measurements were done in ND96 medium containing 96 mM NaCl, 2 mM KCl, 1 mM […], 1.8 mM CaCl2 and 5 mM HEPES, pH 7.5, at a holding potential of −80 mV. The control current is evoked by the application of 2 μM GABA and the normalized relative potentiation of 2 μM GABA-evoked currents by increasing concentration of ivermectin, moxidectin, ivermectin aglycone, or ivermectin monosaccharide is determined as:
[(IMLs+2 μM GABA/I2 μM GABA alone)/(I(MLs+2 μM GABA)Max/I2 μM GABA alone)]×100%
where I2 μM GABA is the control current evoked by 2 μM GABA, IMLs+2 μM GABA is the current evoked by each drug concentration in co-applications with 2 μM GABA, and I(MLs+2 μM GABA)Max is the maximal current evoked by co-applications of drugs and 2 μM GABA. A washout period of 4 min between each GABA application is introduced, allowing receptors to recover from desensitization. Three different batches of oocytes are used to collect data for each analysis. The perfusion system is cleaned between two experiments by washing with 10% DMSO after application of MLs derivatives to avoid contamination.

murine Pgp (mdr1a) = molecular target: T2, murine Pgp (mdr1a) (Mus musculus, UniProt P21447); assay: Rhodamine 123 transport test in LLC-PK1-mdr1a cells overexpressing murine Pgp; format: cell-based; conditions: LLCPK1-mdr1a cells; for Cmax: concentration to obtain maximum inhibitory effect / Emax: maximum effect compared to maximum effect obtained with 5 μM of valspodar: rhodamine 123
T2 construct: expressed in transfected cells; host or cells: LLC-PK1 pig kidney epithelial cells (LLC-PK1-mdr1a), available in the INRA laboratory
T2 sequence (P21447 whole entry): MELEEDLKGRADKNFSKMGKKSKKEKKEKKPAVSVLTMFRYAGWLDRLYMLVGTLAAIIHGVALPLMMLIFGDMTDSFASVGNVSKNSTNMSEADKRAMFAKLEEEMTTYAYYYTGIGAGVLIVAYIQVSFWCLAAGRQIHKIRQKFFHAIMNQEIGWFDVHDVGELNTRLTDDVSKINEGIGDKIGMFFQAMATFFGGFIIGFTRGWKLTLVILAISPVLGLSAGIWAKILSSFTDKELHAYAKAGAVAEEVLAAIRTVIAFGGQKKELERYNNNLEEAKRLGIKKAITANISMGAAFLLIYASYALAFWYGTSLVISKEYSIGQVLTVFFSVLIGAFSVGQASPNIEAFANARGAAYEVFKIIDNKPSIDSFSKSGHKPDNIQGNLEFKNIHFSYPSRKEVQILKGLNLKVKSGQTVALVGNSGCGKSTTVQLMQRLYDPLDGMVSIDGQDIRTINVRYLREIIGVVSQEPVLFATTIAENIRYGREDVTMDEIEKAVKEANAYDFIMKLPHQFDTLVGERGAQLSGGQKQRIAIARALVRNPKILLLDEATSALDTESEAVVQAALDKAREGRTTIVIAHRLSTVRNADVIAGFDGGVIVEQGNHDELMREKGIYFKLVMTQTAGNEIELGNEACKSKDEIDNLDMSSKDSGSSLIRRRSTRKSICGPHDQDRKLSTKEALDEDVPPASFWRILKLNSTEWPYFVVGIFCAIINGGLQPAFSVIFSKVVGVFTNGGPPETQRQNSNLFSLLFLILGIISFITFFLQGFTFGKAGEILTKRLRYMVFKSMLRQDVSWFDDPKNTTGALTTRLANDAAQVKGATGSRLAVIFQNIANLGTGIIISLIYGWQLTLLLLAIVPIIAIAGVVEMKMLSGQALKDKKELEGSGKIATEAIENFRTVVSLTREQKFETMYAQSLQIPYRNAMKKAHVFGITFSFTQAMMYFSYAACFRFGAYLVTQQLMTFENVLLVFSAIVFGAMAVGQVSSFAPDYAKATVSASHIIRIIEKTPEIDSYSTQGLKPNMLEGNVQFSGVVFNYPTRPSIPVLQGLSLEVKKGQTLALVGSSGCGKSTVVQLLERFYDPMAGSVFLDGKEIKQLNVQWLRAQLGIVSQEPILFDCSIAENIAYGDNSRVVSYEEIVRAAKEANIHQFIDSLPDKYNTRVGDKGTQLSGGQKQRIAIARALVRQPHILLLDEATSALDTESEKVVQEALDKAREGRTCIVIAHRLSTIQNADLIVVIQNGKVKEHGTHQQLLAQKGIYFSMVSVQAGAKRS
Procedure: (§3) The cells used were LLC-PK1, pig kidney epithelial cell lines, and LLC-PK1-mdr1a which are recombinant LLC-PK1 cells overexpressing murine abcb1a gene. All cell lines are available in INRA laboratory. The transfected cell line LLC-PK1-HcPgpA, which overexpress nematode Haemonchus contortus PgpA, was developed by R. Prichard (McGill University). Cells were cultured in medium 199 supplemented with penicillin (100 units/ml), streptomycin ([…]), 10% of foetal calf serum and geneticin G418 (400 mg/1) as selecting compound for the LLC-PKI-mdr1a and LLC-PK1-HcPgpA cells. All compounds and medium are from Invitrogen, Cergy Pontoise, France. Cells were seeded on 24-well plates (Sarstedt, Orsay, France) at 2×10^5 cells/well in G418-free medium until confluence for transport activity and on 96-well plates for viability assay.
(§4) Cells were cultured with rhodamine 123 (10 μM, purchased from Sigma) with or without valspodar (VSP, […]). Compounds of interest were dissolved in DMSO and diluted in the medium (final DMSO concentration=0.1%) in a concentration range of 0.1-50 μM. After the 2-h incubation period, the cells were lysed and lysates were stored at −20° C. until analysis. To study the Pgp transport activity, the intracellular accumulation of fluorescent Rho 123 was determined by reading fluorescence in the cell lysates with a spectrofluorimeter (PerkinElmer LS50B, max excitation=507 nm; max emission=529 nm). Protein concentration was determined in lysates with BCA kit using bovine serum albumin as protein standard (Thermo scientific) Results were expressed as fluorescence arbitrary units after normalization to cellular protein content per well.

[3] = test system: Caenorhabditis elegans resistant to ivermectin (IVR10); assay: Ivermectin resistance gravid assay in Caenorhabditis elegans IVR10; format: in vivo; conditions: for RF: C. elegans IVR10, IC50 IVM alone / IC50 IVM with reversal agent; for effect of the agent alone on the development of C. elegans: verapamil at 8 μM, IVM-Agly at 10 ng/ml
Procedure: A gravid assay method, based on the development of eggs to gravid adults over a 96 hr incubation period, was used to determine the resistance with respect to ivermectin (IVM) in C. elegans. The eggs were collected through rinsing the C. elegans worms resistant to IVM (IVR10). Sixty eggs were incubated/well, in standard conditions for four days (96 hours) in order reach adulthood (gravid) in the presence of drugs as followed: ivermectin aglycone (IVM-Agly) alone at 10 ng/ml (11.4 nM); verapamil (VRP) alone at 8 μM; IVM alone: […]; IVM+VRP 8 μM: 0, 1, 2, 4, 6, 8, 10, 20 ng/ml IVM; IVM+IVM-Agly 10 ng/ml: 0, 1, 2, 4, 6, 8, 10, 20 ng/ml ([…]) IVM. Assays were performed in triplicates per condition treatment and the experiment was performed 3 times.

Mdr1ab−/− mice = assay: In vivo toxicity test in Pgp-deficient mice; conditions: mouse, sc
Procedure: Wild-type and the Pgp knock-out mdr1ab^−/− mice with a FVB genetic background were obtained from Taconic (NY, USA). In rodents, there are two Pgps encoded by abc1a and abc1b genes and mdr1ab^−/− mice were deficient for the two gene products. Mice were housed at INRA's transgenic rodent facility at 22±2° C. under 12-hour light/dark cycles. Animals sampling was designed to reduce the influence of interfering parameters such as litter specificity (seven to nine different litters for a ten animals group). Mice received a standard chow diet recommended for the breeding and rearing of rodents (Harlan Teklad TRM Rat/Mouse Diet; Harlan Teklad, Gannat, France). Water and food were available ad libitum. In vivo studies were conducted in mice under European laws on the protection of animals and protocols are performed under procedure and principal for good clinical practice.
Toxicity of ivermectin and ivermectin aglycone is measured in Pgp-deficient mice. Mdr1ab^−/− mice are injected subcutaneously with increasing doses of ivermectin or ivermectin aglycone formulated in propylene glycol/[…] (60:40, v/v). Higher injected doses are 1.5 mg/kg (1.7 μmol/kg) for ivermectin and 16 mg/kg (27 μmol/kg) for ivermectin aglycone, respectively. Toxicity is evaluated during 24 h. […]

[4] = molecular target: nematode Haemonchus contortus PgpA (HcPgpA) (Haemonchus contortus, UniProt O61301); assay: Rhodamine 123 transport test in LLC-PK1-HcPgpA cells overexpressing nematode Pgp; format: cell-based; conditions: for EC50: LLC-PK1-HcPgpA cells, read-out: EC50, concentration of half inhibitory effect, Nematode PgpA
Chain of nematode Haemonchus contortus PgpA (HcPgpA) (O61301 entry or part of it): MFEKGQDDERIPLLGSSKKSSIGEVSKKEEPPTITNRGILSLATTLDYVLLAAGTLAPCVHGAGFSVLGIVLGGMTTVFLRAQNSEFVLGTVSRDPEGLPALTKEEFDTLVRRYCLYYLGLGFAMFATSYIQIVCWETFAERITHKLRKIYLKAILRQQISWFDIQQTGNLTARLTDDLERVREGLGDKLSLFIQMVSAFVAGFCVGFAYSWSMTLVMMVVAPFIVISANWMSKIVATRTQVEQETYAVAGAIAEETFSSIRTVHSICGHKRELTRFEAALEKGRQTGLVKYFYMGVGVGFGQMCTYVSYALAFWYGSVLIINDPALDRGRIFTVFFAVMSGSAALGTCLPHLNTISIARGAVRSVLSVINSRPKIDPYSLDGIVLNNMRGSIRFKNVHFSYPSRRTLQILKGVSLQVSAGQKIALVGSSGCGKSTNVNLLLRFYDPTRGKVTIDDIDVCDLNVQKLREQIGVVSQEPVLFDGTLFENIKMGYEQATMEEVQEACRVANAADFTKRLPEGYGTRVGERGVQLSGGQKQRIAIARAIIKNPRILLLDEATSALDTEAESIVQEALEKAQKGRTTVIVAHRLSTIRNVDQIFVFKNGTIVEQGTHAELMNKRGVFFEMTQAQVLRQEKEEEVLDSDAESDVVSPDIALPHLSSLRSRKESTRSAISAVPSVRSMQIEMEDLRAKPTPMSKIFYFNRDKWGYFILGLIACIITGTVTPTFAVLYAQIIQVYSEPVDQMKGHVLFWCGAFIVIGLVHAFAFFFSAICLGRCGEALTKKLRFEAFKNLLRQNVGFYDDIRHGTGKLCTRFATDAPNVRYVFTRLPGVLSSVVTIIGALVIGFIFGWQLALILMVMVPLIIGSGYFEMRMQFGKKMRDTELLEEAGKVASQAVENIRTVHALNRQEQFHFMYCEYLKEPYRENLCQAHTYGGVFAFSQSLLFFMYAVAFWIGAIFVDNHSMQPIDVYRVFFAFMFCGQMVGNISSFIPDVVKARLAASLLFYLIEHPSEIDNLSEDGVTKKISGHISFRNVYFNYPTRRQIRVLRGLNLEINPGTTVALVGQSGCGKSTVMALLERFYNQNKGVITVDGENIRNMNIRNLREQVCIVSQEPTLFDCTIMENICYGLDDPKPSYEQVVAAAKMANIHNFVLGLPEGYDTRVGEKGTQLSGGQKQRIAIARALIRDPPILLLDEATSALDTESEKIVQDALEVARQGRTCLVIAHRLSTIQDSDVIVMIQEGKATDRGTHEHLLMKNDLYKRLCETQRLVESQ
Procedure: as §3, §4

[5] = test system: Human lymphoma parental CEM cells; assay: Vinblastine cytotoxicity in parental CEM cells, MTT test; format: cell-based; conditions: at concentrations below 0.001 μM
Description: as §1, §2

[6] = test system: vinblastine-resistant CEM/VBL cells; assay: Reversal of vinblastine resistance in CEM/VBL cells, MTT test; format: cell-based, Human; conditions: 1 μM vinblastine
Description: as §1, §2

[7] = Table 2, read-out: EC50, concentration of half inhibitory effect, Murine Pgp

Cc1c2oc3c(C)ccc(C(=O)N[C@@H]4C(=O)N[C@H](C(C)C)C(=O)N5CCC[C@H]5C(=O)N(C)CC(=O)N(C)[C@@H](C(C)C)C(=O)O[C@@H]4C)c3nc-2c(C(=O)N[C@@H]2C(=O)N[C@H](C(C)C)C(=O)N3CCC[C@H]3C(=O)N(C)CC(=O)N(C)[C@@H](C(C)C)C(=O)O[C@@H]2C)c(N)c1=O [ActD, actinomycin D] (I: T[dV]P[Sar][NMeV] / II: T[dV]P[Sar][NMeV]; ester I:1-I:C, II:1-II:C; linker I:N-II:N via Actinocin(9to1))
DC-3F/ADX viability with actinomycin D alone ([1]; 1 μM actinomycin D): not altered | IC50 ([1]; DC-3F/ADX cells, MTT, read-out: IC50 of actinomycin D alone): 5 µM

CCC(C)C1OC2(CCC1C)CC1CC(CC=C(C)C(OC3CC(OC)C(O)C(C)O3)C(C)C=CC=C3COC4C(O)C(C)=CC(C(=O)O1)C34O)O2 (stereo not shown) [IVM Monosaccharide]
EC50 [2]: 122 nM | agonist strength at GABA receptors, in words [2]: weak agonist

CCC(C)C1OC2(CCC1C)CC1CC(CC=C(C)C(O)C(C)C=CC=C3COC4C(O)C(C)=CC(C(=O)O1)C34O)O2 (stereo not shown) [Ivermectin aglycone, 22,23-dihydroavermectin B1 aglycone]
Cmax: concentration to obtain maximum inhibitory effect (murine Pgp (mdr1a)): 10.0 µM | Emax: maximum effect compared to maximum effect obtained with 5 μM of valspodar (murine Pgp (mdr1a)): 80.0 % valspodar ® | Cmax: concentration to obtain maximum inhibitory effect (murine Pgp (mdr1a); listed as ivermectin aglycone): about 10 μM | EC50 (murine Pgp (mdr1a); Table 1, read-out: EC50: effective concentration for inhibiting 50% of transport of rhodamine 123 by murine Pgp): 1000 nM | EC50 (murine Pgp (mdr1a); [7]): 2500 nM | RF [3]: 1.5 | effect of the agent alone on the development of C. elegans [3]: had no effects | EC50 [2]: 215 nM | agonist strength at GABA receptors, in words [2]: weak agonist | toxicity in words (Mdr1ab−/− mice): does not show any toxicity | RF (IC50 for toxic drug alone/IC50 for toxic drug in the presence of compound) ([1]; DC-3F/ADX cells): 62 | toxicity of actinomycin D when combined with the compound ([1]; DC-3F/ADX cells): became toxic | EC50 [4]: 500 nM | inhibitory potency for parasite HcPgpA relative to mammalian Pgp ([4]; ratio of EC50 murine Pgp / HcPgpA, 120 min): 5 times

CO/N=C1\C[C@]2(C[C@@H]3C[C@@H](C/C=C(\C)C[C@@H](C)/C=C/C=C4\CO[C@@H]5[C@H](O)C(C)=C[C@@H](C(=O)O3)[C@]45O)O2)O[C@H](/C(C)=C/C(C)C)[C@H]1C [MOX, moxidectin]
EC50 [2]: 5.6 ± 1.5 nM

CC[C@]1(O)C[C@@H]2CN(CCc3c([nH]c4ccccc34)[C@@](C(=O)OC)(c3cc4c(cc3OC)N(C)[C@H]3[C@@](O)(C(=O)OC)[C@H](OC(C)=O)[C@]5(CC)C=CCN6CC[C@]43[C@@H]65)C2)C1 [VBL, vinblastine]
sensitivity of parental cells to VBL [5]: highly sensitive | viability of CEM/VBL cells in vinblastine alone [6]: fully viable

COc1ccc(CCN(C)CCCC(C#N)(c2ccc(OC)c(OC)c2)C(C)C)cc1OC (stereo not shown) [verapamil]
RF [3]: 2.1 | effect of the agent alone on the development of C. elegans [3]: had no effects

ivermectin
Cmax: concentration to obtain maximum inhibitory effect (murine Pgp (mdr1a)): 5.0 µM | Emax: maximum effect compared to maximum effect obtained with 5 μM of valspodar (murine Pgp (mdr1a)): 88.0 % valspodar ® | EC50 (murine Pgp (mdr1a); [7]): 500 nM | IC50 of IVM alone ([3]; C. elegans IVR10, egg to gravid adult, 96 h): 6.8 ± 0.2 ng/mL | IC50 ([3]; C. elegans IVR10, egg to gravid adult, 96 h, read-out: IC50 of IVM alone): 7.8 ± 0.2 nM | concentration blocking the development of C. elegans IVR10 eggs ([3]; IVM alone): ~10 nM | EC50 ([2]; listed as IVM): 29.3 ± 3.4 nM | EC50 [2]: 29 nM | RF (IC50 for toxic drug alone/IC50 for toxic drug in the presence of compound) ([1]; DC-3F/ADX cells): 45 | toxicity of actinomycin D when combined with the compound ([1]; DC-3F/ADX cells): became toxic | EC50 [4]: 600 nM

Reference: US20210261594A1, “USE OF AVERMECTIN DERIVATIVE FOR INCREASING BIOAVAILABILITY AND EFFICACY OF MACROCYLIC LACTONES” (INSTITUT NATIONAL DE RECHERCHE POUR L'AGRICULTURE, …, priority 2011, published 2021)
